Like-named read-outs stand apart in the source and are kept apart here.
How the values were obtained:
10326 cells = assay: Cell proliferation assay, 10326 patient-derived cell line; format: cell-based; conditions: Homo sapiens, read-out: Cell-assay IC50 10326 cells
Procedure: Curve fit was calculated by logistical regression (FIG. 56C). […] Curve fit was calculated by logistical regression.

797 cells = assay: Cell proliferation assay, 797 NMC cell line; format: cell-based; conditions: Homo sapiens, read-out: Cell-assay IC50 797 cells
Procedure: Curve fit was calculated by logistical regression.
Cells were seeded into white, 384-well microtiter plates (Nunc) at 500 cells per well in a total volume of 50 μL media. […] Compounds were delivered to microtiter assay plates by robotic pin transfer (PerkinElmer JANUS equipped with a V&P Scientific 100 nL pin tool). Following a 48 h incubation at 37° C., cells were lysed and wells were assessed for total ATP content using a commercial proliferation assay (Cell TiterGlo; Promega). Replicate measurements were analyzed with respect to dose and estimates of IC50 were calculated by logistic regression (GraphPad Prism).

BRD4(2) = BRD4(2) (Homo sapiens (Human), UniProt O60885); assay: Alpha-assay acetyl-histone binding, BRD4 site 2
BRD4(1) = BRD4(1) (Homo sapiens (Human), UniProt O60885); assay: Alpha-assay acetyl-histone binding, BRD4 site 1
Procedure: The binding activity of lead compounds with the BRD4 site 1 was determined by Alpha-assay with a 12-point dose response curve (FIG. 56A).
Assays were performed as described previously^8 with minor modifications from the manufacturer's protocol (PerkinElmer, USA). All reagents were diluted in 50 mM HEPES, 100 mM NaCl, 0.1% BSA, pH 7.4 supplemented with 0.05% CHAPS and allowed to equilibrate to room temperature prior to addition to plates. […] Plates were sealed and incubated for a further 30 minutes, before the addition of 4 μl of streptavidin-coated donor beads (25 μg/ml) and 4 μl nickel chelate acceptor beads (25 μg/ml) under low light conditions. Plates were foil-sealed to protect from light, incubated at room temperature for 60 minutes and read on a PHERAstar FS plate reader (BMG Labtech, Germany) using an AlphaScreen 680 excitation/570 emission filter set. IC50 values were calculated in Prism 5 (GraphPad Software, USA) after normalization against corresponding DMSO controls and are given as the final concentration of compound in the 20 μl reaction volume.

GFP-BRD4-NUT = GFP-BRD4-NUT (Homo sapiens (Human), UniProt O60885+Q86Y26); conditions: 500 nM
Procedure: (§4) FRAP studies were performed on U2OS cells as previously described^3,20. In brief, U2OS cells were transfected (lipofectamine; Invitrogen) with mammalian overexpression constructs encoding GFP chimera with BRD4, NUT and BRD4-NUT. A 5 μm^2 nuclear region was bleached with high laser intensity in one cell within each field, and measured for recovery with low laser intensity and a 150 μm pinhole. Images of identical fields were acquired using a Nikon C1 Plus confocal microscope equipped with a 37° C. heated chamber and FRAP modules over 90 seconds. Average intensities of the bleached region were measured over time and using MetaMorph v7, and normalized to an independent region of interest before bleaching.

TT = assay: Cell proliferation, TT squamous carcinoma cell line; format: cell-based, human; conditions: 250 nM, 72 hours
Procedure: (§1) Data is presented as mean±s.d. (n=3). IC50 values were calculated by logistic regression.

[1] = test system: BRD4-dependent human carcinoma cells; assay: Annexin-V / propidium iodide flow cytometry (apoptosis); format: cell-based; conditions: 500 nM, 24 or 48 hours
Procedure: (§2) Thus, early and late apoptosis was assessed with annexin-V and propidium iodide staining by flow cytometry.
Trypsinized cells were mixed 1:1 on ice with Annexin-V/propidium iodide buffer (10 mM HEPES pH 7.4, 140 mM NaCl, 2.5 mM CaCl2) containing Annexin V-FITC (BD Pharmingen, 1:500) and propidium iodide (Invitrogen, 1:1000). Samples were immediately analyzed on a BD FACS Canto II. Visualizations and analyses of apoptotic fractions were generated using FlowJo flow cytometry analysis software (Tree Star, Inc.).

NMC 797 xenografts = assay: NMC 797 xenograft efficacy study; format: in vivo, mouse
Description: Animals were followed daily for clinical symptoms.

GFP-NUT = GFP-NUT (Homo sapiens (Human), UniProt Q86Y26); assay: FRAP in cells transfected with GFP-NUT; conditions: 500 nM
Chain of GFP-NUT (Q86Y26 whole entry, looked up): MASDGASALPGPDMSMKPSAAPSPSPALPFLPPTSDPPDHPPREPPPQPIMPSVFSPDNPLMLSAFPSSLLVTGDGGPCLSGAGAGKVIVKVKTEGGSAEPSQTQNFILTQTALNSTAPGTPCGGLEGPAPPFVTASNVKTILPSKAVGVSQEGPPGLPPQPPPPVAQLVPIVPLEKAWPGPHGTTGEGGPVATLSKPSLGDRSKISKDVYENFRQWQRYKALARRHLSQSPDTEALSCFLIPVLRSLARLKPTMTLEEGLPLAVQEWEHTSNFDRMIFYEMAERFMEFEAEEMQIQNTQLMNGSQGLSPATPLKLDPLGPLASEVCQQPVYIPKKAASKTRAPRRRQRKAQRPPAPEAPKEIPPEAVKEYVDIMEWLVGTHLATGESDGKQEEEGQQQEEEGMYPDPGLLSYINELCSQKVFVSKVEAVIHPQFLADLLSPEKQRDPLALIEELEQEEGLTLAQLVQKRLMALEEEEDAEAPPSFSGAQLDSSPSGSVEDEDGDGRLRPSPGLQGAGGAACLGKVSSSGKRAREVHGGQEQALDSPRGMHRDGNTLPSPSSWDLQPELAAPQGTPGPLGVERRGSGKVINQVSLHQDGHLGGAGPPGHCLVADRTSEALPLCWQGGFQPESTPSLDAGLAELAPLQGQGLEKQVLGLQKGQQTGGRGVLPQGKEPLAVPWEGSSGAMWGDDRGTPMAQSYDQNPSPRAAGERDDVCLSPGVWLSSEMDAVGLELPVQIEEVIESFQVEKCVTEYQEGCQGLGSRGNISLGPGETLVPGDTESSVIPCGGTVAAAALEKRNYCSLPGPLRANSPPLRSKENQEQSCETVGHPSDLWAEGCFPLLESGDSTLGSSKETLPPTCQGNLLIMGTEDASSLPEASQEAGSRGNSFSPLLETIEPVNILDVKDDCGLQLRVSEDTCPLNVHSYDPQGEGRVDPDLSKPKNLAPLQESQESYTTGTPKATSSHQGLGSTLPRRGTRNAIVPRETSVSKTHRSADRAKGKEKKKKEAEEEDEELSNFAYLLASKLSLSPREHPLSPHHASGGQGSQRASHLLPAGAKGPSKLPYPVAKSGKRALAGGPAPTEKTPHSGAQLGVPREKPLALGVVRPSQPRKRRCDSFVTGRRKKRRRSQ
Procedure: as §4

TE10 [2] = assay: Differentiation immunohistochemistry in non-BRD4-dependent squamous carcinoma cell line
Procedure: Media was then removed and chambers were washed with cold PBS. Cells were then fixed in 4% formaldehyde for 20 minutes at 4° C., washed with PBS and transferred to the Dana-Farber/Harvard Cancer Center (DF/HCC) Specialized Histopathology Services Core at Brigham and Women's Hospital for staining, as described below. […] Cells were then trypsinized and cell pellets were formed by centrifugation at 2,000 rpm for 10 minutes, stabilized with ½ volume of HistoGel (Richard-Allen Scientific) and 10% bovine serum albumin. Cell pellets were washed with PBS and fixed in 4% formaldehyde for 20 minutes at 4° C. The cells were then washed with PBS and transferred to the DF/HCC Core Laboratory at the Brigham and Women's Hospital for staining, as described below. […] All fixed material was embedded, sectioned and stained by the DF/HCC Core Laboratory at Brigham and Women's Hospital, using established optimized protocols. Images were obtained using an Olympus BX40 microscope (Olympus Imaging America, Center Valley, Pa.) and a Micropublisher 3.3 RTV color camera (QImaging, Surrey, BC).

TE10 [3] = assay: Cell proliferation, TE10 squamous carcinoma cell line; format: cell-based, human; conditions: 250 nM, 72 hours
Procedure: as §1

GFP-BRD4 = GFP-BRD4 (Homo sapiens (Human), UniProt O60885); assay: FRAP in U2OS cells transfected with GFP-BRD4; format: cell-based
Procedure: as §4

BRD3-NUT cells = assay: BRD3-NUT murine xenograft model; format: in vivo, mouse; conditions: 50 mg/kg IP 7 days/week
Description: Mice were implanted subcutaneously with BRD3-NUT cells. Tumor measurement data were collected weekly. […] On day 24 post-injection, five mice from each group were euthanized and tumor samples were collected to be sent for lab analysis. Throughout the remainder of the study tumor samples were collected as mice were sacrificed. For all samples one half of the tumor was fixed in 10% formalin and the other half was flash frozen on dry ice. Treatment ended on day 32. Tumor volume and weights were collected weekly until all mice either became moribund or tumors reached 2 cm in any dimension. […] Upon cessation of therapy, tumor growth resumed. Tumor volume differences were significant at all points (p=7.65274E-09 at Day 24).

cellular receptors = assay: Off-target effects on cellular receptors
NMC 797 and Per403 cells = assay: Differentiation and proliferation immunohistochemistry in NMC cells; format: cell-based, human; conditions: BRD4-dependent NMC cells
Per403 cells = assay: cells; conditions: Homo sapiens, PER-403, 72 h, read-out: Per403 IC50 (inhibition of cell growth)
Procedure: as §2

NMC 11060 cells = assay: cells; conditions: Homo sapiens, NMC 11060, 72 h, read-out: cellular viability IC50
Procedure: Data is presented as mean±s.d. (n=3). IC50 values were calculated by logistic regression. […] (n=3).
(§3) In parallel with these studies, a patient with widely metastatic BRD4-NUT positive NMC arising from the mediastinum was identified. With the goal of developing a more clinically-relevant disease model, short-term cultures were established using discarded clinical material obtained from pleural fluid draining from a palliative chest tube in the patient.

NMC 11060 xenografts = assay: Patient-derived NMC 11060 primary xenograft, PET imaging; format: in vivo, mouse; conditions: 50 mg kg^-1 daily for four days
Description: as §3

Cc1sc2c(c1C)C(c1ccc(Cl)cc1)=NC(CC(=O)NCCN1CCOCC1)c1nnc(C)n1-2 (stereo not drawn) [JQ33]
IC50 (10326 cells; proliferation after 72 hours): 8 nM
IC50 (797 cells; proliferation after 72 hours): 0.00297 µM

Cc1sc2c(c1C)C(c1ccc(Cl)cc1)=NC(CC(=O)NCCCN1CCN(C)CC1)c1nnc(C)n1-2 (stereo not drawn) [JQ35]
IC50 (10326 cells; proliferation after 72 hours): 3 nM
binding activity with the BRD4 site 2 (BRD4(2)): excellent binding activity
IC50 (797 cells; proliferation after 72 hours): 0.00609 µM
binding activity with the BRD4 site 1 (BRD4(1)): excellent binding activity

Cc1sc2c(c1C)C(c1ccc(Cl)cc1)=N[C@@H](CC(=O)N/N=C/c1ncc[nH]1)c1nnc(C)n1-2 [JQ6]
IC50 (10326 cells; proliferation after 72 hours): 0.051 nM
binding activity with the BRD4 site 2 (BRD4(2)): excellent binding activity
IC50 (797 cells; proliferation after 72 hours): 0.001 µM
binding activity with the BRD4 site 1 (BRD4(1)): excellent binding activity

Cc1sc2c(c1C)C(c1ccc(Cl)cc1)=NC(CC(=O)OC(C)(C)C)c1nnc(C)n1-2 (racemic) [JQ1, tert-Butyl 2-(4-(4-chlorophenyl)-2,3,9-trimethyl-6H-thieno[3,2-f][1,2,4]triazolo[4,3-a][1,4]diazepin-6-yl)acetate]
time-to-recovery of fluorescence intensity, GFP-BRD4-NUT (GFP-BRD4-NUT): markedly accelerated
effects on cell proliferation (TT): Minimal effects
apoptosis (annexin-V and propidium iodide staining) [1]: induced immediate and progressive apoptosis
tolerability (toxicity, weight loss) (NMC 797 xenografts; 50 mg kg^-1 daily IP, 14 days): well tolerated
tumor growth (tumor volume by caliper) (NMC 797 xenografts; 50 mg kg^-1 daily IP, 14 days): statistically-significant reduction in tumor growth
FDG uptake by PET imaging (NMC 797 xenografts; 50 mg kg^-1 daily IP, four days): marked response on FDG uptake
keratin expression by quantitative IHC (NMC 797 xenografts; excised tumor specimens): strong (3+) keratin expression
redistribution of GFP-NUT (GFP-NUT): no effect
differentiation effects (TE10 [2]): fails to exhibit differentiation effects
effects on cell proliferation (TE10 [3]): Minimal effects
fluorescence recovery of GFP-BRD4 (GFP-BRD4; 500 nM): immediate
body weight (BRD3-NUT cells): mild weight loss
tumor volume (BRD3-NUT cells): tumor regression
off-target effects on cellular receptors (cellular receptors): few off-target effects

Cc1sc2c(c1C)C(c1ccc(Cl)cc1)=N[C@@H](CC(=O)NCCc1cnc[nH]1)c1nnc(C)n1-2 [JQ8]
IC50 (10326 cells; proliferation after 72 hours): 2.8 nM
binding activity with the BRD4 site 2 (BRD4(2)): excellent binding activity
IC50 (797 cells; proliferation after 72 hours): 0.6 µM
binding activity with the BRD4 site 1 (BRD4(1)): excellent binding activity

Cc1sc2c(c1C)C(c1ccc(Cl)cc1)=N[C@@H](CC(=O)OC(C)(C)C)c1nnc(C)n1-2 (single isomer, unassigned) [(+)-JQ1]
differentiation and growth arrest phenotypes (NMC 797 and Per403 cells): prompted
IC50 (Per403 cells): 0.06 µM
IC50 (NMC 11060 cells): 0.004 µM
keratin expression by quantitative IHC (NMC 11060 xenografts): induction of keratin expression
fluorescence recovery of GFP-BRD4 (GFP-BRD4; 250 nM, 5 h): enhanced recovery

Cc1sc2c(c1C)C(c1ccc(Cl)cc1)=N[C@H](CC(=O)OC(C)(C)C)c1nnc(C)n1-2 [(R)-JQ1]
IC50 (10326 cells; 72 h): 11800 nM
IC50 (797 cells; 72 h): 1540 µM

Cc1sc2c(c1C)C(c1ccc(Cl)cc1)=N[C@@H](CC(=O)OC(C)(C)C)c1nnc(C)n1-2 [(S)-JQ1, (S)-tert-Butyl 2-(4-(4-chlorophenyl)-2,3,9-trimethyl-6H-thieno[3,2-f][1,2,4]triazolo[4,3-a][1,4]diazepin-6-yl)acetate]
IC50 (10326 cells; 72 h): 1.5 nM
IC50 (797 cells; 72 h): 0.0056 µM

Cc1sc2c(c1C)C(c1ccc(Cl)cc1)=N[C@@H](CC(=O)NCCN1CCN(C)CC1)c1nnc(C)n1-2 [JQ13]
binding activity with the BRD4 site 2 (BRD4(2)): excellent binding activity
binding activity with the BRD4 site 1 (BRD4(1)): excellent binding activity
